Measurements: patent US4495196A, “Antiinflammatory 4,5-diaryl-α-polyfluoroalkyl-1H-pyrrole-2-methanols and method for use thereof” (E. I. Du Pont de Nemours and Company, priority 1981, dated 1985)
Read-outs that look alike come from different tables or passages of the source.

Assays:
[1] = tested on: adjuvant-induced arthritis in rats; assay: Established Adjuvant-Induced Arthritis in Rats; type: in vivo, Lewis (Wistar) male rats; settings: for ED50: 504 h, read-out: Adjuvant Arthritis ED50
[2] = tested on: phenylquinone-induced writhing in mice; assay: Phenylquinone Writhing Test; type: in vivo, female white mice; settings: mouse; oral; effective analgesic dose for 50% of the mice; observed 10 minutes from 30 minutes after dosing
Method: Phenylquinone Writhing Test
The phenylquinone writhing test, modified from Siegmund, et al., Proc. Soc. […] A test compound suspended in 1% methylcellulose was given orally to fasted (17-21 hours) female white mice, 5-20 animals per double blind test. Aqueous (0.01% phenyl-p-benzoquinone) phenylquinone was injected intraperitoneally at 24 minutes later using 0.20 ml per mouse.

[3] = rat, oral gavage once daily for 7 days (days 14-20), ED50% for decrease from control paw volume, estimated by inspection, day 21
[4] = 168 h, rat, oral once daily for 7 days, read-out: percent reduction in paw volume at the indicated dose

| SMILES | ED50 [2] [mg/kg] | ED50 [1, 3] [mg/kg] | other results |
| --- | --- | --- | --- |
| OC(c1cc(-c2ccc(Cl)cc2)c(-c2ccc(Cl)cc2)[nH]1)(C(F)(F)F)C(F)(F)F [Example 1, 4,5-Bis(4-chlorophenyl)-α,α-bis(trifluoromethyl)-1H-pyrrole-2-methanol] | > 108 |  | ED50 ([1]; Rattus norvegicus, po): 7 mg/kg |
| OC(c1cc(-c2ccccc2)c(-c2ccccc2)[nH]1)(C(F)(F)F)C(F)(F)F [Example 2] | 135 |  | inhibition in vivo at 81 mg/kg ([1]; 168 h, rat, oral once daily for 7 days, dose 81 mg/kg, read-out: percent reduction in paw volume at the indicated dose): 42% |
| OC(c1cc(-c2ccc(F)cc2)c(-c2ccc(F)cc2)[nH]1)(C(F)(F)F)C(F)(F)F [Example 3, 4,5-bis(4-fluorophenyl)-α,α-bis(trifluoromethyl)-1H-pyrrole-2-methanol] | > 108 | 3.5 |  |
| OC(c1cc(-c2ccccc2)c(-c2ccc(Cl)c(Cl)c2)[nH]1)(C(F)(F)F)C(F)(F)F [Example 4] | > 108 | 70 |  |
| OC(c1cc(-c2ccc(F)cc2)c(-c2ccc(Br)cc2)[nH]1)(C(F)(F)F)C(F)(F)F [Example 5] | > 135 | 6 |  |
| Cc1c(C(O)(C(F)(F)F)C(F)(F)F)[nH]c(-c2ccc(F)cc2)c1-c1ccc(F)cc1 [Example 6] | > 135 | 2.8 |  |
| OC(c1cc(-c2ccccc2)c(-c2cccnc2)[nH]1)(C(F)(F)F)C(F)(F)F [Example 7] | 78 |  | inhibition in vivo at 18 mg/kg ([1]; 168 h, rat, oral once daily for 7 days, dose 18 mg/kg, read-out: percent reduction in paw volume at the indicated dose): 31% |
| COc1ccc(-c2cc(C(O)(C(F)(F)F)C(F)(F)F)[nH]c2-c2ccc(OC)cc2)cc1 [Example 8] | 5.2 | 4 |  |
| Cc1ccc(-c2cc(C(O)(C(F)(F)F)C(F)(F)F)[nH]c2-c2ccc(C)cc2)cc1 [Example 9] | > 108 | 8 |  |
| CN(C)c1ccc(-c2[nH]c(C(O)(C(F)(F)F)C(F)(F)F)cc2-c2ccc(F)cc2)cc1 [Example 10, 4-(4-fluorophenyl)-5-(4-dimethylaminophenyl)-α,α-bis(trifluoromethyl)-1H-pyrrole-2-methanol] | > 108 | 2.2 |  |
| OC(c1cc(-c2ccc(F)cc2)c(-c2cccnc2)[nH]1)(C(F)(F)F)C(F)(F)F [Example 11] | > 108 |  | inhibition in vivo at 15 mg/kg ([1]; 168 h, rat, oral once daily for 7 days, dose 15 mg/kg, read-out: percent reduction in paw volume at the indicated dose): 47% |
| CSc1ccc(-c2[nH]c(C(O)(C(F)(F)F)C(F)(F)F)cc2-c2ccc(F)cc2)cc1 [Example 12] | > 108 | 9 |  |
| CS(=O)(=O)c1ccc(-c2[nH]c(C(O)(C(F)(F)F)C(F)(F)F)cc2-c2ccc(F)cc2)cc1 [Example 13] | > 108 |  | inhibition in vivo at 27 mg/kg [1, 4]: 22% |
| OC1(c2cc(-c3ccc(F)cc3)c(-c3ccc(F)cc3)[nH]2)C(F)(F)C(F)(F)C1(F)F [Example 16] | > 108 |  | ED50 ([1]; Rattus norvegicus, po): 1.3 mg/kg |
| OC(c1cc(-c2ccc(F)cc2)c(-c2ccc(F)cc2)[nH]1)(C(F)(F)Cl)C(F)(F)Cl [Example 17] | > 108 | 6.5 |  |
| OC(c1cc(-c2ccc(F)cc2)c(-c2ccc(F)cc2)[nH]1)(C(F)F)C(F)(F)F (centres unmarked) [Example 18] | > 108 | 4 |  |
| OC(c1cc(-c2ccc(F)cc2)c(-c2ccc(F)cc2)[nH]1)(C(F)(F)F)C(F)(F)Cl (centres unmarked) [Example 19] | > 108 | 2 |  |

| SMILES | ED50 [2] [mg/kg] | ED50 [1, 3] [mg/kg] | other results |
| --- | --- | --- | --- |
| OC1(c2cc(-c3ccc(F)cc3)c(-c3ccc(F)cc3)[nH]2)C(F)(F)C(F)(F)C1(F)Cl (centres unmarked) [Example 20] | > 108 | 4.5 |  |
| OC1(c2cc(-c3ccc(F)cc3)c(-c3ccc(F)cc3)[nH]2)C(F)(F)C(F)(F)C1(F)Br (centres unmarked) [Example 21] | > 108 | 20 |  |
| OC(c1cc(-c2ccc(F)cc2)c(-c2ccc(F)cc2)[nH]1)(C(F)(F)Cl)C(F)(Cl)Cl (centres unmarked) [Example 22] | > 108 |  | ED50 ([1]; Rattus norvegicus, po): 7 mg/kg |
| Cn1c(C(O)(C(F)(F)F)C(F)(F)F)cc(-c2ccc(F)cc2)c1-c1ccc(F)cc1 [Example 28, 4,5-Bis(4-fluorophenyl)-1-methyl-α,α-bis(trifluoromethyl)-1H-pyrrole-2-methanol] | 45 | 0.66 |  |
| OC(c1cc(-c2ccc(F)cc2)c(-c2ccc(F)cc2)[nH]1)C(F)(F)F (stereo not drawn) [Example 29, 4,5-Bis(4-fluorophenyl)-α-(trifluoromethyl)-1H-pyrrole-2-methanol] | > 108 | 11 |  |
| COc1ccc(-c2cc(C(O)C(F)(F)F)[nH]c2-c2ccc(OC)cc2)cc1 (stereo not drawn) [Example 30, 4,5-Bis(4-methoxyphenyl)-α-(trifluoromethyl)-1H-pyrrole-2-methanol] | 13.4 | 5.5 |  |
| COc1ccc(-c2cc(C(C)(O)C(F)(F)F)[nH]c2-c2ccc(OC)cc2)cc1 (stereo not drawn) [Example 31, 4,5-Bis(4-methoxyphenyl)-α-methyl-α-(trifluoromethyl)-1H-pyrrole-2-methanol] | 23 | 1.25 |  |
| COC(c1cc(-c2ccc(F)cc2)c(-c2ccc(F)cc2)n1C)(C(F)(F)F)C(F)(F)F [Example 32, 2,3-Bis(4-fluorophenyl)-1-methyl-5-[2,2,2-trifluoro-1-methoxy-1-(trifluoromethyl)ethyl]-1H-pyrrole] | > 108 | 5.5 |  |
| Fc1ccc(-c2cc(C(OCc3ccccc3)(C(F)(F)F)C(F)(F)F)[nH]c2-c2ccc(F)cc2)cc1 [Example 33, 2,3-Bis(4-fluorophenyl)-5-[2,2,2-trifluoro-1-(phenylmethoxy)-1-(trifluoromethyl)ethyl]-1H-pyrrole] |  |  | inhibition in vivo at 25 mg/kg [1, 4]: 35% |
| CC(=O)OC(c1cc(-c2ccc(F)cc2)c(-c2ccc(F)cc2)n1C)(C(F)(F)F)C(F)(F)F [Example 34, 4,5-Bis(4-fluorophenyl)-1-methyl-α,α-bis(trifluoromethyl)-1H-pyrrole-2-methanol, Acetate] | > 108 | 2.5 |  |
| Cn1c(C(OC(=O)c2ccccc2)(C(F)(F)F)C(F)(F)F)cc(-c2ccc(F)cc2)c1-c1ccc(F)cc1 [Example 35, 4,5-Bis(4-fluorophenyl)-1-methyl-α,α-bis(trifluoromethyl)-1H-pyrrole-2-methanol, Benzoate] | > 108 |  | inhibition in vivo at 27 mg/kg [1, 4]: 22% |
| COC(=O)OC(c1cc(-c2ccc(F)cc2)c(-c2ccc(F)cc2)n1C)(C(F)(F)F)C(F)(F)F [Example 36, 4,5-Bis(4-fluorophenyl)-1-methyl-α,α-bis(trifluoromethyl)-1H-pyrrole-2-methanol, Methylcarbonate] | > 108 |  | inhibition in vivo at 25 mg/kg [1, 4]: 46% |
| OC(c1cc(-c2ccc(F)cc2)c(-c2ccc(F)cc2)[nH]1)C(F)(F)C(F)(F)F (centres unmarked) [Example 37] | 103 | 2.9 |  |
| CC(O)(c1cc(-c2ccc(F)cc2)c(-c2ccc(F)cc2)[nH]1)C(F)(F)C(F)(F)F (centres unmarked) [Example 38] | > 108 | 3.1 |  |
| OC(c1cc(-c2ccc(F)cc2)c(-c2ccc(F)cc2)[nH]1)C(F)(F)C(F)(F)C(F)(F)F (centres unmarked) [Example 49] | > 108 |  | ED50 ([1]; Rattus norvegicus, po): 7 mg/kg |
| CC(O)(c1cc(-c2ccc(F)cc2)c(-c2ccc(F)cc2)[nH]1)C(F)(F)F (centres unmarked) [Example 50] | > 108 |  | inhibition in vivo at 9 mg/kg ([1]; 168 h, rat, oral once daily for 7 days, dose 9 mg/kg, read-out: percent reduction in paw volume at the indicated dose): 47% |
